Results taken from patent publication US10143697B2, “Pharmaceutic composition comprising of HDAC inhibitor and a steroid and the use thereof” (VALCURIA AB, priority 2011, dated 2018).
Read-outs that look alike come from different tables or passages of the source.

Assays:
WSU-NHL cells [1] = test: pretreatment with Trichostatin A or Belinostat, Prednisolone and CHOP, viability by trypan blue exclusion; conditions: for sensitization to CHOP-treatment: pretreatment with the HDAC inhibitor alone before CHOP
Experimental: Viability was assessed by trypan blue exclusion at indicated time points (n=3). Significant differences were evaluated using Student's unpaired t-test. All tests were two-sided. Effects were considered statistically significant at *P<0.05, **P<0.01, ***P<0.001.

WSU-NHL cells [2] = test: pretreatment with VPA and prednisolone before CHOP, viability by trypan blue exclusion; type: cell-based
Description: Pretreatment with VPA before CHOP could theoretically increase the response to CHOP therapy through induction of DNA damage. However, VPA treatment could result in symptoms such as somnolence in a patient. These symptoms could be counteracted by simultaneous treatment with prednisolone. […] All tests were two-sided.

SU-DHL-8 = test: cell viability time course by trypan blue exclusion, 0.5 mM or 1.5 mM VPA alone or with CHOP; type: cell-based; conditions: Homo sapiens, read-out: Viability (% of control cells day 1); for viability at 500 µM: SU-DHL-8, 0.5 mM VPA; for viability at 1500 µM: SU-DHL-8, 1.5 mM VPA
Experimental: (§1) The DLBCL cell lines SU-DHL-8 (Table 2A) and WSU-NHL (Table 2B) were treated for 72 hours with 0.5 mM or 1.5 mM VPA alone, or in combination with CHOP. The concentration of 0.5 mM VPA was chosen because it is a normal serum concentration during continuous VPA treatment in patients with epilepsy. The concentration of 1.5 mM VPA was chosen because it is the maximal tolerated serum concentration during 5 day VPA treatment for compassionate use as noted by the inventor.
(§2) The cell viability was assessed after 0 (Day 1), 24 (Day 2), 48 (Day 3) and 72 (Day 4) hours respectively, by trypan blue exclusion and normalised to untreated control cells. Data are presented as mean, n=3.
(§3) Treatment effects on viability were tested against the effects of CHOP treatment alone. […] All tests were two-sided. Effects were considered statistically significant at P<0.05 (*) and P<0.01 (**).
(§4) Viability (% of control cells day 1) are shown in Table 2A (SU-DHL-8) and Table 2B (WSU-NHL, n=3) respectively.

WSU-NHL = test: as above; type: cell-based; conditions: Homo sapiens, read-out: Viability (% of control cells day 1); for viability at 500 µM: 0.5 mM VPA; for viability at 1500 µM: 1.5 mM VPA
Experimental: as §1, §2, §3, §4

[3] = continuous VPA treatment in patients with epilepsy; cited from earlier work
histone H3 = test: acetylation of histone H3 by western blot analysis in DLBCL cell line model; type: cell-based; conditions: valproic acid at pharmacological concentrations
[4] = VPA serum concentration in patients; type: in vivo, human; conditions: 5 day VPA treatment for compassionate use as noted by the inventor
Experimental: as §1

Karpas-422 cells = test: cell viability by trypan blue exclusion after 72 hours, VPA alone or in combination with CHOP; type: cell-based; conditions: Homo sapiens, KARPAS-422, 72 h; for viability at 100 µM: 0.1 mM VPA; for viability at 2000 µM: 2 mM VPA; for viability at 10000 µM: 10 mM VPA
Experimental: (§5) The DLBCL cell lines WSU-NHL, Karpas-422, ULA, SU-DHL-5 and SU-DHL-8 cells were treated for 72 hours with three different concentrations (0.1 mM, 2 mM and 10 mM respectively) of valproic acid (VPA) alone, or in combination with CHOP. The CHOP regimen used in all examples consists of 10 μM cyclophosphamide monohydrate, 20 nM doxorubicin hydrochloride, 2 nM vincristine sulfate and 20 μg/ml prednisolone. (Ageberg, Rydström, Lindén, Linderoth, Jerkeman and Drott; Exp Cell Research; May 1; 317(8):1179-91).
(§6) The cell viability was assessed after 72 hours by trypan blue exclusion and normalised to untreated control cells at day 0 (seeding). Data are presented as mean±SEM, n=3.

SU-DHL-8 cells [5] = test: as above; type: cell-based; conditions: Homo sapiens, SU-DHL-8, 72 h; for viability at 100 µM: 0.1 mM VPA; for viability at 2000 µM: 2 mM VPA; for viability at 10000 µM: 10 mM VPA
Experimental: as §5, §6

WSU-NHL cells [6] = test: as above; type: cell-based; conditions: Homo sapiens; for viability at 100 µM: 0.1 mM VPA; for viability at 2000 µM: 2 mM VPA; for viability at 10000 µM: 10 mM VPA
Experimental: as §5, §6

SU-DHL-5 cells = test: as above; type: cell-based; conditions: Homo sapiens, SU-DHL-5, 72 h; for viability at 100 µM: 0.1 mM VPA; for viability at 2000 µM: 2 mM VPA; for viability at 10000 µM: 10 mM VPA
Experimental: as §5, §6

ULA cells = test: as above; type: cell-based; conditions: for viability at 100 µM: 0.1 mM VPA; for viability at 2000 µM: 2 mM VPA; for viability at 10000 µM: 10 mM VPA
Experimental: as §5, §6

SU-DHL-8 cells [7] = test: Rituximab antibody-dependent cellular cytotoxicity (ADCC) with NK cells, dead target cells PKH26/7-AAD double positive; type: cell-based
Experimental: (§7) To estimate the impact of VPA on the antibody-dependent-cellular cytotoxicity (ADCC) induced by the CD20 antibody Rituximab. […]
(§8) NK cells were added as an effector to target cell ratio of 10:1, thereafter the cells were incubated for an additional 20 hours. Dead target cells were identified as double positive for PKH26 and 7-AAD and used as readout of the assay.

WSU-NHL cells [8] = test: as above; type: cell-based
Experimental: as §7, §8

[9] = 1.5 mM VPA for 24 hours before rituximab
[10] = Rituximab 0 μg/ml, +NK Cells + 1.5 mM VPA
[11] = Rituximab 0.1 μg/ml, +NK Cells + 1.5 mM VPA
[12] = Rituximab 0.1 μg/ml, +NK Cells + 1.5 mM VPA + CHOP
[13] = Rituximab 0.1 μg/ml, +NK cells + CHOP
[14] = Rituximab 1 μg/ml, +NK Cells + 1.5 mM VPA
[15] = Rituximab 1 μg/ml, +NK Cells + 1.5 mM VPA + CHOP
[16] = Rituximab 1 μg/ml, +NK cells + CHOP
[17] = Rituximab 10 μg/ml, +NK Cells + 1.5 mM VPA
[18] = Rituximab 10 μg/ml, +NK Cells + 1.5 mM VPA + CHOP
[19] = Rituximab 10 μg/ml, +NK cells + CHOP

O=C(/C=C/c1cccc(S(=O)(=O)Nc2ccccc2)c1)NO [Belinostat]
sensitization to CHOP-treatment (WSU-NHL cells [1]): sensitized DLBCL cell lines to CHOP-induced cell death

C[C@]12C=CC(=O)C=C1CC[C@@H]1[C@@H]2[C@@H](O)C[C@@]2(C)[C@H]1CC[C@]2(O)C(=O)CO [Prednisolone]
CHOP-induced cell death (WSU-NHL cells [2]; prednisolone (20 μg/ml) added to VPA pretreatment before CHOP, compared to pretreatment with VPA alone): further increases significantly CHOP-induced cell death
CHOP-induced cell death (WSU-NHL cells [1]; prednisolone (20 μg/ml) added to HDAC inhibitor pretreatment before CHOP): significantly increases CHOP-induced cell death

CC(/C=C/C(=O)NO)=C\[C@@H](C)C(=O)c1ccc(N(C)C)cc1 [TSA, Trichostatin A]
sensitization to CHOP-treatment (WSU-NHL cells [1]): sensitizes lymphoma cell lines to CHOP-treatment

CCCC(CCC)C(=O)O [VPA, valproic acid]
viability at 500 µM (SU-DHL-8; Day 1 (0 hours)): 100%
viability at 500 µM (SU-DHL-8; Day 2 (24 hours)): 102%
viability at 500 µM (SU-DHL-8; Day 3 (48 hours)): 101%
viability at 500 µM (SU-DHL-8; Day 4 (72 hours)): 94%
viability at 1500 µM (SU-DHL-8; Day 1 (0 hours)): 100%
viability at 1500 µM (SU-DHL-8; Day 2 (24 hours)): 97%
viability at 1500 µM (SU-DHL-8; Day 3 (48 hours)): 64%
viability at 1500 µM (SU-DHL-8; Day 4 (72 hours)): 59%
viability at 500 µM (WSU-NHL; Day 1 (0 hours)): 100%
viability at 500 µM (WSU-NHL; Day 2 (24 hours)): 97%
viability at 500 µM (WSU-NHL; Day 3 (48 hours)): 99%
viability at 500 µM (WSU-NHL; Day 4 (72 hours)): 98%
viability at 1500 µM (WSU-NHL; Day 1 (0 hours)): 100%
viability at 1500 µM (WSU-NHL; Day 2 (24 hours)): 95%
viability at 1500 µM (WSU-NHL; Day 3 (48 hours)): 68%
viability at 1500 µM (WSU-NHL; Day 4 (72 hours)): 36%
normal serum concentration [3]: 0.5 mM
acetylation of histone H3 (histone H3): increase in acetylation of histone H3
sensitization to CHOP-treatment (WSU-NHL cells [2]; pretreatment with VPA alone before CHOP): sensitizes lymphoma cell lines to CHOP-treatment
maximal tolerated serum concentration [4]: 1.5 mM
viability at 100 µM (Karpas-422 cells; +CHOP): 80%
viability at 100 µM (Karpas-422 cells; −CHOP): 100%
viability at 2000 µM (Karpas-422 cells; +CHOP): 67%
viability at 2000 µM (Karpas-422 cells; −CHOP): 102%
viability at 10000 µM (Karpas-422 cells; +CHOP): 21%
viability at 10000 µM (Karpas-422 cells; −CHOP): 21%
viability at 100 µM (SU-DHL-8 cells [5]; +CHOP): 55%
viability at 100 µM (SU-DHL-8 cells [5]; −CHOP): 105%
viability at 2000 µM (SU-DHL-8 cells [5]; +CHOP): 0%
viability at 2000 µM (SU-DHL-8 cells [5]; −CHOP): 67%
viability at 10000 µM (SU-DHL-8 cells [5]; +CHOP): 0%
viability at 10000 µM (SU-DHL-8 cells [5]; −CHOP): 0%
viability at 100 µM (WSU-NHL cells [6]; +CHOP): 63%
viability at 100 µM (WSU-NHL cells [6]; −CHOP): 99%
viability at 2000 µM (WSU-NHL cells [6]; +CHOP): 6%
viability at 2000 µM (WSU-NHL cells [6]; −CHOP): 29%
viability at 10000 µM (WSU-NHL cells [6]; +CHOP): 0%
viability at 10000 µM (WSU-NHL cells [6]; −CHOP): 1%
viability at 100 µM (SU-DHL-5 cells; +CHOP): 26%
viability at 100 µM (SU-DHL-5 cells; −CHOP): 124%
viability at 2000 µM (SU-DHL-5 cells; +CHOP): 1%
viability at 2000 µM (SU-DHL-5 cells; −CHOP): 53%
viability at 10000 µM (SU-DHL-5 cells; +CHOP): 0%
viability at 10000 µM (SU-DHL-5 cells; −CHOP): 0%
viability at 100 µM (ULA cells; +CHOP): 73%
viability at 100 µM (ULA cells; −CHOP): 105%
viability at 2000 µM (ULA cells; +CHOP): 52%
viability at 2000 µM (ULA cells; −CHOP): 52%
viability at 10000 µM (ULA cells; +CHOP): 42%
viability at 10000 µM (ULA cells; −CHOP): 50%
effect on Rituximab induced ADCC (SU-DHL-8 cells [7]; [9]): does not affect Rituximab induced ADCC
percentage of dead cells, Mean (SU-DHL-8 cells [7]; [10]): 34%
effect on Rituximab induced ADCC (WSU-NHL cells [8]; [9]): does not affect Rituximab induced ADCC
percentage of dead cells, Mean (WSU-NHL cells [8]; [10]): 27%

Rituximab: the CD20 antibody Rituximab
percentage of dead cells, Mean (SU-DHL-8 cells [7]; [11]): 43%
percentage of dead cells, Mean (SU-DHL-8 cells [7]; [12]): 50%
percentage of dead cells, Mean (SU-DHL-8 cells [7]; Rituximab 0.1 μg/ml, +NK cells): 38%
percentage of dead cells, Mean (SU-DHL-8 cells [7]; [13]): 38%
percentage of dead cells, Mean (SU-DHL-8 cells [7]; [14]): 49%
percentage of dead cells, Mean (SU-DHL-8 cells [7]; [15]): 63%
percentage of dead cells, Mean (SU-DHL-8 cells [7]; Rituximab 1 μg/ml, +NK cells): 50%
percentage of dead cells, Mean (SU-DHL-8 cells [7]; [16]): 49%
percentage of dead cells, Mean (SU-DHL-8 cells [7]; [17]): 58%
percentage of dead cells, Mean (SU-DHL-8 cells [7]; [18]): 66%
percentage of dead cells, Mean (SU-DHL-8 cells [7]; Rituximab 10 μg/ml, +NK cells): 60%
percentage of dead cells, Mean (SU-DHL-8 cells [7]; [19]): 59%
percentage of dead cells, Mean (WSU-NHL cells [8]; [11]): 40%
percentage of dead cells, Mean (WSU-NHL cells [8]; [12]): 60%
percentage of dead cells, Mean (WSU-NHL cells [8]; Rituximab 0.1 μg/ml, +NK cells): 35%
percentage of dead cells, Mean (WSU-NHL cells [8]; [13]): 45%
percentage of dead cells, Mean (WSU-NHL cells [8]; [14]): 50%
percentage of dead cells, Mean (WSU-NHL cells [8]; [15]): 60%
percentage of dead cells, Mean (WSU-NHL cells [8]; Rituximab 1 μg/ml, +NK cells): 45%
percentage of dead cells, Mean (WSU-NHL cells [8]; [16]): 54%
percentage of dead cells, Mean (WSU-NHL cells [8]; [17]): 56%
percentage of dead cells, Mean (WSU-NHL cells [8]; [18]): 66%
percentage of dead cells, Mean (WSU-NHL cells [8]; Rituximab 10 μg/ml, +NK cells): 54%
percentage of dead cells, Mean (WSU-NHL cells [8]; [19]): 61%
